From PMC7803973, “Structural basis of malaria parasite phenylalanine tRNA-synthetase inhibition by bicyclic azetidines” (Nature Communications, 2021) come the findings set out here.

For the test, the target named is T1, PvcFRS (Plasmodium vivax, UniProt A5K9S0).
T1 construct: Full-length PvcFRS was also purified according to the same protocol; vector-encoded tag of pETM11 (own knowledge: N-terminal His6 with TEV site); Ni-NTA purification; made in house; host or cells: E. coli strain B834
Nature of the test: Incubation of PvcFRS with BRD1389 and ATP analogue AMPPNP. Format: binding. The following applies: PvcFRS with high concentrations of both BRD1389 and AMPPNP. The source says:
The diarylacetylene moiety of BRD1389 that occupies the L-Phe site is recognized via a bed of β-strand residues Ala541-Trp542-Gly543-Leu544 (Fig. 3b), while its edge phenyl ring is covered by Tyr497 where it provides an aromatic T-shaped π…π interaction at a distance of ~4.2 Å (Fig. 3b). In addition, the diarylacetylene moiety is surrounded by hydrophobic elements of Asn519, Gln457, and Glu459 (Fig. 3b). The urea moiety of BRD1389 is buried in a groove that is composed of Gly506, His508, Glu510, Lys512–513, Leu515, Ile552 and Pro549 (Figs. 3b, e and 4c). The urea/groove interactions are mainly stabilized by hydrophobic contacts, particularly from Pro549 and His508 while residues Val517, Ile483 and Pro549 provide sandwich support to the cyclopropoxy moiety (Figs. 3b and 4c). The urea component of BRD1389 forms hydrogen bonding interactions with main-chain N-atom of Ser545 (Fig. 3a, b). The above sets of extensive interactions position BRD1389 in an ‘L’ shaped conformation wherein its methoxy methyl group is surrounded by socket residues Arg443, Glu445, His451, and Phe455. […] This similarity highlights the importance of the three-dimensional shape and rigidity of the diazabicyclodecane scaffold in pre-orienting the molecular appendages for optimal target engagement. […]

SMILES strings stand for the structures.

T1 sequence (A5K464 whole entry): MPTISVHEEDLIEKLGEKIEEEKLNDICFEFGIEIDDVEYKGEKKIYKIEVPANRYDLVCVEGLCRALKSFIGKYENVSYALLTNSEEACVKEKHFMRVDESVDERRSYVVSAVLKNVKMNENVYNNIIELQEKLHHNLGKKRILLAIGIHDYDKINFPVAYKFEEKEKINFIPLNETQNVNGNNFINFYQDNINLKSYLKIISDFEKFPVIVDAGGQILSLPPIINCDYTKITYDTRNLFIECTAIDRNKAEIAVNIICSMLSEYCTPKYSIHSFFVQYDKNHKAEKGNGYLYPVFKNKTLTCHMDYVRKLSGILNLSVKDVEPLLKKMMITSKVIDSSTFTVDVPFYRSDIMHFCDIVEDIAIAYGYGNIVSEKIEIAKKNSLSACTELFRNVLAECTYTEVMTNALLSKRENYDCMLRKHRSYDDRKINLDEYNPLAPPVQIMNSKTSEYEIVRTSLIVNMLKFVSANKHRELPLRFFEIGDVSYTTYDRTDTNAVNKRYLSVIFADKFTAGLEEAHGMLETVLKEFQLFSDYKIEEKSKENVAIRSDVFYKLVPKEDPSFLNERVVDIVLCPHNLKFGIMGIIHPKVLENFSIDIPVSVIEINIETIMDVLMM
T1 sequence (A5K9S0 whole entry): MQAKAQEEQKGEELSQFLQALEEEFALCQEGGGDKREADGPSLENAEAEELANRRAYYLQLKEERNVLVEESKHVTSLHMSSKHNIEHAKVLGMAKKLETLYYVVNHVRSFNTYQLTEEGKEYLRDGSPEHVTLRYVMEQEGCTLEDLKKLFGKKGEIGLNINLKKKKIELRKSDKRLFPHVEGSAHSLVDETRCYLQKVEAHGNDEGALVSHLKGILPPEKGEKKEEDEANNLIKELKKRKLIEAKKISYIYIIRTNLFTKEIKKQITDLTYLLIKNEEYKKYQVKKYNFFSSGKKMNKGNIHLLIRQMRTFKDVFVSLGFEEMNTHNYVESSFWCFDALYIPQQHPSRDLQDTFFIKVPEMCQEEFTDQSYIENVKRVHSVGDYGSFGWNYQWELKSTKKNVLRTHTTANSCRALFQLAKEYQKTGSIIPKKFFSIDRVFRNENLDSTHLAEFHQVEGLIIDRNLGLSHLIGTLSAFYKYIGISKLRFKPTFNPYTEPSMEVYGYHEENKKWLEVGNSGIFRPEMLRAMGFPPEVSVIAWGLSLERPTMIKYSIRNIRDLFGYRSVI

Take `COC[C@@H]1[C@H](c2ccc(C#Cc3ccccc3)cc2)[C@@H]2CN(C(=O)Nc3ccc(OC4CC4)cc3)C[C@@H](O)[C@@H](O)CN12` [BRD1389]: the “Binding observed on co-incubation” value is reported as “observed only binding of BRD1389”.
